{
  "source": "patent US20250325491A1",
  "about": "“POLYVALENT MOLECULE BASED LIPID NANOPARTICLES FOR NUCLEIC ACID DELIVERY” (Bio-TRIP B.V., priority 2022, published 2025)",
  "key": {"[1]": {"tested_on": "C57BL/6 mice", "experiment": "In vivo Firefly luciferase expression", "settings": "0.5 mg/kg Firefly luciferase mRNA in aNP, bolus injection, 16 hours, two animals (FIG. 16)", "description": "After 16 hours, the animals were sacrificed and the liver, spleen and femur collected. Organs were processed to yield single cell suspensions. 1/10th of the liver was cut into small pieces, incubated for 15 min, 37° C., 50 RPM with 5 mL liberase solution. Next, the digested liver was put through a 70 μm strainer and collected in a 50 mL falcon tube. After washing with 1×PBS, the cells was resuspended in 15 mL 1×PBS. 1/10th of the spleen was cut into small pieces and put through a 70 μm strainer and collected in a 50 mL falcon tube. After washing with 1×PBS, 1 mL of lysis buffer (BD Pharm Lyse™, cat #555899, diluted 10 times in diH2O) was added and incubated for 4 minute at room temperature. The cells were washed with 1×PBS and resuspended in 15 mL 1×PBS. Both ends of the femur were broken. The bone marrow cells were flushed from the inside of the bone with 10 mL 1×PBS through a 70 μm strainer and collected in a 50 mL falcon tube. The cells were centrifugated and 1 mL lysis buffer (BD Pharm Lyse™, cat #555899, diluted 10 times in diH2O) was added to the pellet and incubated for 1 minute at room temperature. […] All cell suspensions were counted and 500000 cells were seeded in a V-bottom plate. […] 40 μL was transferred to a white 96-well plate and luminescence was measured using the following settings: Settle time: 1000 ms; Integration time: 500 ms; Open filter."}, "[2]": {"experiment": "siRNA retention by Quant-iT RiboGreen assay", "type": "physicochemical", "settings": "A2 siRNA-aNPs with variations in N/P, tri-caprylin content, cholesterol content and type of phospholipid (FIG. 13); in most cases", "description": "The Quant-iT RiboGreen assay (Thermo Fisher) was used to quantify the amount of siRNA loaded inside the formulated particles. The assay was performed using a black 96-well plate. The formulation sample with a theoretical siRNA concentration of 133.3 μg/mL, was diluted 200 times in TE buffer (10 mM Tris-HCl, 1 mM, EDTA, pH 7.5 in DEPC-treated water) and with a TE buffer containing 2% Triton™ X-100, in a black 96-well plate to a total volume of 100 μl. The Triton detergent will disrupt the lipid-based nanoparticles; therefore, all siRNA (retained plus unretained) becomes accessible for the Quant-iT RiboGreen reagent. Controls of siRNA of known concentration (28.6 μg/mL) were diluted 53.3 times in both TE buffer and TE buffer containing 2% Triton in a 96-well plate to a total volume of 100 μl. Next, RiboGreen reagent was diluted 200 times with TE buffer and with TE buffer containing Triton. 100 μl of this dilution was added to each well containing sample or control to bring the total volume in the plate to 200 μl. Subsequently, the samples' fluorescence was measured on a Tecan Spark® microplate reader at an excitation wavelength of 480 nm and emission wavelength of 520 nm.\nThe recovery of siRNA was determined as:\nThe siRNA retention=recovery×entrapment."}, "[3]": {"tested_on": "RAW 264.7 cell line", "experiment": "MTS cytotoxicity assay", "type": "cell-based", "settings": "RAW 264.7 cell line exposed to siRNA-aNPs with increasing amounts of the polyvalent molecule (FIG. 10)", "description": "MTS assays were carried out on multiple apolipoprotein nanoparticles (aNPs) of the invention. These assays were executed in line with protocols that are known in the art."}, "[4]": {"tested_on": "Firefly luciferase in RAW264.7 cell line transfected with the pmirGLO plasmid", "experiment": "In vitro silencing (dose-response curve)", "settings": "RAW 264.7 cell line; siRNA-aNPs containing the polyvalent molecule vs DLin-MC3-DMA or ALC-0315 particles (FIG. 11)", "method": "The in vitro silencing experiments were performed in a RAW264.7 cell line transfected with the pmirGLO plasmid (containing Renilla luciferase and Firefly luciferase expressing gene sequences). The cells were cultured until 80% confluency in a T75 cell culture flask. The cells were detached, counted, and seeded at 10000 cells/well in a 96-well plate. After overnight resting, the cells were transfected with nanoparticles containing anti Firefly luciferase siRNA at a range of concentrations. After 48-hour incubation, the old medium was washed off with 1×PBS. Lysate phosphate buffer (Dual-Luciferase® Reporter Assay System, Promega) was added to lyse the cells. […] Subsequently, 40 μl of ONE-Glo™ reagent (Dual-Luciferase® Reporter Assay System, Promega) was added and luminescence was measured with a Tecan Spark® microplate reader at an integration time of 500 ms, and settle time of 1000 ms. Since the luminescence peak should be in the range of 550-570 nm, a luminescence scan was performed to confirm the wavelength. Next, 40 μl of Stop and Glo reagent (Dual-Luciferase® Reporter Assay System, Promega) was added to each well and the luminescence was measured again in the same way. The relative remaining Firefly luciferase luminescence was calculated. First, the Firefly luminescence was normalized with the Renilla luminescence. […]"}},
  "data": [
    {"smiles": "CCCCCCCCOC(=O)CCN(CCCN(CCCCN(CCCN(CCC(=O)OCCCCCCCC)CCC(=O)OCCCCCCCC)CCCN(CCC(=O)OCCCCCCCC)CCC(=O)OCCCCCCCC)CCCN(CCC(=O)OCCCCCCCC)CCC(=O)OCCCCCCCC)CCC(=O)OCCCCCCCC", "note": "[Example A2, G1-ACR-nC8-8]", "values": [
      {"measurement": "Luminescence intensity of single cell suspensions from liver, spleen and bone marrow (tissue targeting)", "setting": "[1]", "value": "target spleen and bone marrow tissue efficiently"},
      {"measurement": "siRNA retention (Ribogreen assay)", "setting": "[2]", "value": "high siRNA retention"},
      {"measurement": "cytotoxicity (MTS assay)", "setting": "[3]", "value": "do not exercise cytotoxicity"},
      {"measurement": "silencing potency compared with reference aNPs or LNPs (dose response curve)", "setting": "[4]", "value": "higher potency than the reference aNPs or LNPs"}
    ]}
  ]
}
